In patent publication US10576085B2, “Substituted aminopurine compounds, compositions thereof, and methods of treatment therewith” (Signal Pharmaceuticals, LLC, priority 2016, dated 2020):

Assays:
[1] = tested on: IL-8; test: IL-8 in PBMC culture media (Mesoscale V-Plex Human IL-8); format: cell-based; details: 0.5 μM
Description: The effect of Compound 1 treatment on levels of IL-8 was determined in PBMC culture media. PBMCs were isolated from whole blood and cultured in RPMI media plus 10% FBS. PBMCs were plated at 1×10^6 per milliliter in 10 cm^2 dishes. The PBMCs were treated with 0.1% DMSO or 0.5 μM Compound 1. Treatments were taken down at the designated time points. The culture media (1 mL) was used for IL-8 analysis. The IL-8 analysis was performed with a Mesoscale V-Plex Human IL-8 kit according to the manufacturer's instructions.

[2] = tested on: PDX146 tumor; test: PDX1994060146 (PDX146) subcutaneous colorectal patient-derived xenograft model; format: in vivo, NSG mice; details: for Tumor growth delay (TGD): TTP study
Description: A time to progression (TTP) study was performed to determine the effect of longer treatment duration on tumor growth.
In the first experiment Compound 1 was administered orally, QD at 1, 5, and 15 mg/kg or 5 and 15 mg/kg BID for 22 days.
In the TTP study, Compound 1 was administered orally, 1, 5, and 15 mg/kg BID for 49-77 days. Compound 1 treatment groups were dosed throughout the duration of the study until the group mean reached the predetermined endpoint of approximately 1200 mm^3 or study termination. Tumor growth delay (TGD) was calculated as the time between the termination of the vehicle control group (on day 43) and the Compound 1 treatment groups. The TGD was 8, 12 and >37 days for the 1, 5 and 15 mg/kg treatment groups, respectively. (FIG. 11)

[3] = tested on: MAPK signaling (pRSK1, DUSP4, DUSP6, SPRY2, cyclin D1, c-Myc, YAP); test: MAPK signaling markers (MSD, Western blot, qPCR) in Colo 205 (BRAF V600E); format: cell-based
Description: In a time course experiment, Colo-205 cancer cells were treated with 0.5 μM Compound 1 for various time periods. The effect of Compound 1 on pRSK S380 was measured as described. The effect of Compound 1 on other MAPK pathway markers (DUSP4 and DUSP6) was measured via Western blotting with specific antibodies.
The ability of Compound 1 to inhibit MAPK signaling was assessed by determining the DUSP4 and DUSP6 protein expression. Colon cancer cell line Colo 205 (BRAF V600E) cultures were treated with DMSO or increasing concentrations of Compound 1 for 2, 8 or 24 h. Proteins were extracted from treated cells and analyzed by Western blot using antibodies against DUSP4, DUSP6, cyclin D1, c-Myc, YAP or β-actin. RNAs were extracted using Cell-To-CT kit and quantitative PCR was performed with probes specific for DUSP4, DUSP6, SPRY2, c-Myc and cyclin D1. Specific probes for β-actin were used for normalization.
Compound 1 modulation of MAPK, WNT/β-catenin, and Hippo/YAP pathway markers was evaluated by standard Western blotting. LOX-IMVI, SW48, and Colo-205 cells were plated in 6-well plates at a density of 250,000 cells per well and were allowed to attach overnight. Compound 1 was added to cells at concentrations of 0.03, 0.1, 0.3, 1, and 3 μM for durations of 2, 8, and 24 hours. […] The cell lysates were heated in sodium dodecyl sulfate (SDS)-sample buffer and 40 μg of cell lysate per condition were loaded onto gels and separated using SDS polyacrylamide gel electrophoresis (PAGE). Protein was transferred to nitrocellulose membrane, and immunoblotted with anti DUSP4, DUSP6, cMyc, Cyclin D1, YAP, AXIN2, HDACS (phospho S498), and β-actin antibodies. Membranes were scanned on the Licor Odyssey system.
Compound 1 modulation of MAPK, WNT/β-catenin, and Hippo/YAP pathway genes was evaluated by real-time (RT)-qPCR. […], SW48, and Colo-205 cells were plated in 96-well plates at a density of 20,000 cells per well and were allowed to attach overnight. Compound 1 was added to cells at half log concentrations from 1 nM to 10 μM for durations of 2, 8, and 24 hours. Cells were harvested using the TaqMan Gene Expression Cells-to-CT Kit according to the product manual. Next, RT-PCR was performed and the resulting cDNA was used in qPCR reactions on the ViiA7 Real-Time PCR System (Thermo Fisher Scientific). TaqMan probes were used to monitor changes in DUSP4, DUSP6, SPRY2, MYC, CCND1, AXIN2, CTGF, Cyr61, AREG, and ACTB genes. All genes were normalized to ACTB expression and reported as percentage of DMSO-only control.

[4] = tested on: TEAD reporter activity (YAP/TAZ responsive synthetic promoter); test: TEAD reporter assay, 8×GTIIC-luciferase WI38 VA13 cells; format: cell-based; details: Homo sapiens, WI-38 VA13; 24 hour assay; cumulative data of three experiments
Description: TEAD reporter activity was analyzed using WI38 VA13 cells stably expressing a YAP/TAZ responsive synthetic promoter driving luciferase expression (8×GTIIC-luciferase). 10,000 cells per well were seeded on a white-walled 96-well plate and left overnight. After 16-20 hours, cells were treated with compound and TEAD reporter activity was measured 24 or 72 hours later using Bright Glo luciferase assay (Promega) according to the manufacturers instructions. This assay was performed 3 times for Compound 1 and twice for Trametinib.

C[C@]1(C(N)=O)CC[C@@H](n2c(Nc3c(Cl)cc(Cl)cc3Cl)nc3cnc(N[C@@H]4CCOC[C@H]4F)nc32)CC1 [Compound 1, cis-4-[2-{[(3S,4R)-3-fluorooxan-4-yl]amino}-8-(2,4,6-trichloroanilino)-9H-purin-9-yl]-1-methyl cyclohexane-1-carboxamide]
IL-8 levels in PBMC culture media [1]: inhibit IL-8 levels at different time-points | Tumor growth delay (TGD) ([2]; 1 mg/kg BID orally): 8 days | Tumor growth delay (TGD) ([2]; 5 mg/kg BID orally): 12 days | Tumor growth delay (TGD) ([2]; 15 mg/kg BID orally): > 37 days | Antitumor activity, 15 mg/kg BID compared to 15 mg/kg QD ([2]; 22 days): appeared to increase the antitumor activity | Antitumor activity ([2]; orally, QD at 1, 5, and 15 mg/kg or 5 and 15 mg/kg BID for 22 days): Dose-dependent antitumor activity | cyclin D1 and c-Myc RNA and protein levels ([3]; Colo 205): significantly decreased | DUSP4 and DUSP6 protein (Western blot) ([3]; Colo 205 (BRAF V600E), as early as 2 h, sustained through 24 h): significantly reduced | YAP protein ([3]; Colo 205, 24 h): decreased YAP protein | SPRY2 transcription ([3]; Colo 205, qPCR): reduction of SPRY2 transcription in a concentration-dependent manner | Inhibition of ERK targets pRSK1, DUSP4 and DUSP6, time course ([3]; Colo-205, 0.5 μM): sustained inhibition (up to 72 hr) | IC50 [4]: > 10 µM
